In paper PMC3386930, “Altering APP Proteolysis: Increasing sAPPalpha Production by Targeting Dimerization of the APP Ectodomain” (PLoS ONE, 2012):
“Also recorded” adds a separate entry of the source.

Assays:
eAPP230–624 [1] = target: T1, eAPP230–624 (Homo sapiens, UniProt P05067); assay: Intrinsic tryptophan fluorescence of eAPP230–624; assay type: binding; conditions: for quenching constant (Ksv): linear part, equation 1
T1 construct: made in house
Protocol: (§1) The excitation spectra of the intrinsic tryptophan fluorescence were recorded using either a Shimadzu RF-530PC (Shimadzu Scientific Instruments) or a Spectramax XPS spectrophotometer (Molecular Devices).
Full emission spectra were measured with the Shimadzu RF-530PC using a 3 ml quartz cuvette, a 5 nm slit width and protein concentrations between 0.2–0.6 µM. […] For these larger dilutions, control titrations with the protein alone were used to generate a scaling matrix where the scale factor was both a function of wavelength and dilution. […] A similar scaling matrix was used to correct for the effect of dilution with DMSO. […] All titrations were performed at 24°C. The oligomers were stored on ice during the experiment.
These concentrations are analogous to concentrations used to create complexes for the small angle x-ray scattering analysis. The incubated material was diluted with PBS so that the final protein concentration was 0.5 µM. The spectra were recorded with the Shimadzu […].
For experiments with the Spectromax XPS plate reader, an excitation wavelength of 295 nm was used. This excitation wavelength was chosen to minimize both the contribution of tyrosine in the protein and the background fluorescence of the 96-well plates (Costar #3915).
For the quenching experiments, the data were analyzed by constructing Stern-Volmer plots, F0/F vs. Q, where Fo is the intensity of the fluorescence at zero concentration, F is the intensity of the fluorescence, and Q is the concentration of the quenching agent. When quenching is through either a static (binding) or dynamic (collisional) mechanism this plot is linear and follows the equation: [drawing 1] (1) where Ksv is the quenching constant. When both processes are present the Stern-Volmer plot is quadratic: [drawing 2] (2) where KD is the equilibrium constant associated with dynamic quenching and Ks is the equilibrium constant associated with static quenching. All parameters were determined using PRISM (GraphPad) and the appropriate non-linear curve fitting routine.
The centroid wavelength (λc) was calculated as: [drawing 3] (3) where I(λi) is the intensity observed for the wavelength (λi). The range of wavelengths was 310–390 nm.

Aβ oligomers = conditions: cited from earlier work
eAPP230–624 [2] = target: T1, eAPP230–624; assay: Difference absorption spectra of eAPP230–624; assay type: binding
MBP-eAPP230–624 = assay: Small-angle X-ray scattering (SAXS) of MBP-eAPP230–624 complexes; assay type: binding; conditions: 50 µM compound, 1:12 molar ratio, PBS plus 2% DMSO
Protocol: as §1
(§2) The samples were incubated on ice for 20 minutes and then concentrated to 50 µl with 10-kDa cutoff concentrators (Millipore). […] Samples of the filtrates were used for buffer subtraction.
(§3) The samples were then concentrated and purified with a Superdex S200 size-exclusion column with 20 mM Tris pH 7.4, 100 mM sodium chloride and 2 mM EDTA. Samples of the protein buffer from the size-exclusion columns were used for buffer subtraction.
(§4) Data collection and processing
(§5) Small-angle X-ray scattering data were collected using protein concentrations in the range of 0.5–3 mg/ml and an X-ray wavelength of 1.11 Å at beam line 12.3.1 (Advanced Light Source). Data were integrated with software customized for the beam line and processed with the program PRIMUS [30]. The program GNOM [31] was used to calculate the maximum dimension and the radius of gyration and to estimate the intensity of the scattering at zero angle for higher concentration samples.

[3] = system: B103 rat neuroblastoma cells stably expressing human wild-type APP; assay: sAPPα and sAPPβ production in B103 cells (AlphaLISA); assay type: cell-based; conditions: 1 µM compound, 24 hours, 100,000 cells per well, vs 0.01% DMSO
Protocol: (§6) B103 rat neuroblastoma cells and 7W-CHO cells were seeded at 100,000 or 50,000 cells per well in a 96-well plate and allowed to grow for one day. The B103 rat neuroblastoma cells stably expressing human wild-type APP were a kind gift from Dr. Lennart Mucke (J. David Gladstone Institute of Neurological Disease and University of California, San Francisco). The 7W-CHO cells were a kind gift from Dr. Edward Koo (Department of Molecular Pathology, University of California, San Diego). The cell culture medium was then changed and the cells treated with 1 µM disulfiram, 1 µM sulfiram, or 0.01% DMSO (control). After 24 hours, the amount of sAPPα and sAPPβ produced in the medium was quantified using the AL231C and AL232C AlphaLISA kits from Perkin Elmer, respectively, modified using a custom biotinylated APP antibody.
A) Effect of treatment with disulfiram and sulfiram on sAPPα and Aβ production in 7W-CHO cells. […] After 24 hours, the amount of sAPPα and sAPPβ produced in the medium was quantified using the AL231C and AL232C AlphaLISA kit from Perkin Elmer, modified using a custom biotinylated human APP antibody. B) Effect on the ratio of α to β cleavage in 7W-CHO cells, as calculated by dividing the amount of sAPPα to sAPPβ produced by the 50,000 7W-CHO cells during one day under the effect of either disulfiram, sulfiram or a DMSO control. […]

7W-CHO cells = assay: sAPPα and sAPPβ production in 7W-CHO cells (AlphaLISA); assay type: cell-based; conditions: for sAPPα production / α-cleavage of APP (in words): 1 µM compound, 24 hours, 50,000 cells per well, vs 0.01% DMSO
Protocol: as §6
A) Effect of treatment with disulfiram and sulfiram on sAPPα and Aβ production in 7W-CHO cells. 7W-CHO cells were seeded at 50,000 cells per well in a 96-well plate and allowed to grow for one day. The cell culture medium was then changed and the cells treated with 1 µM disulfiram, 1 µM sulfiram, or 0.01% DMSO (control). After 24 hours, the amount of sAPPα and sAPPβ produced in the medium was quantified using the AL231C and AL232C AlphaLISA kit from Perkin Elmer, modified using a custom biotinylated human APP antibody. B) Effect on the ratio of α to β cleavage in 7W-CHO cells, as calculated by dividing the amount of sAPPα to sAPPβ produced by the 50,000 7W-CHO cells during one day under the effect of either disulfiram, sulfiram or a DMSO control. C) Effect on the ratio of α to β cleavage in B103 cells. B103 neuroblastoma cells were seeded at 100,000 cells per well in a 96-well plate and allowed to grow for one day. The cell culture medium was then changed and the cells treated with 1 µM disulfiram, 1 µM sulfiram, or 0.01% DMSO (Control). After 24 hours, the amount of sAPPα and sAPPβ produced in the medium was quantified using the same modified AL231C and AL232C AlphaLISA kit from Perkin Elmer. The ratio of α to β cleavage was calculated by dividing the amount of sAPPα to sAPPβ produced by the 100,000 B103 cells during one day under the effect of the disulfiram, sulfiram or DMSO control.

[4] = target: TRX-eAPP_(290–624), thioredoxin fusion protein containing residues 290–624 of APP695 (UniProt P05067); assay: small-angle X-ray scattering (SAXS); eAPP fragment incubated on ice with Aβ oligomers or Aβ fragments (peptide less than 10 µM), concentrated and purified on Superdex S200 in 20 mM Tris pH 7.4, 100 mM sodium chloride, 2 mM EDTA
[5] = target: eAPP_(230–624), fragment of the APP ectodomain containing residues 230–624 (UniProt P05067); assay: as above
[6] = target: MBP-eAPP_(230–624), maltose binding protein fusion protein containing residues 230–624 (UniProt P05067); assay: small-angle X-ray scattering (SAXS); 150 µl MBP-eAPP230-624 (≈0.5 mg/ml) diluted with 400 µl of peptide solution, 20 minutes on ice, concentrated to 50 µl with 10-kDa cutoff concentrators
eAPP230–624 [7] = target: T1, eAPP230–624; assay: Small-angle X-ray scattering (SAXS) of eAPP230–624 complexes; assay type: binding; conditions: for MWcalc/MWseq: SAXS relative mass, MWseq 45-kDa for eAPP230–624, max. error ±0.2, monomer around 1.3, protein alone 2.0; for Dmax / Rg: SAXS, GNOM, eAPP230–624 with peptide; for Dmax: maximum dimension, max. estimated error ±10 Å; for Rg: radius of gyration, max. estimated error ±2 Å
Protocol: as §2, §3, §4, §5

[8] = Size-exclusion chromatography of Aβ fragments; assay type: physicochemical; conditions: Superdex 75 column, PBS, indicates smaller dimers or monomers
Excerpt: The arrow indicates the direction of shift of the fluorescence peak. […] The black line indicates the starting concentration and the blue line indicates the final concentration. The arrow indicates the direction of shift of the fluorescence peak.

neuronal cells = conditions: similar activity; reference not printed with this sentence, 42 for APP319–335; cited from earlier work
Excerpt: A 17-amino acid peptide (APP319–335) that contains the RERMS sequence is an example of such a compound. […] The mechanism by which the RERMS peptide enhances the producti ...

APP = conditions: cited from earlier work
Excerpt: These changes in conformation may be important in setting the balance between α-cleavage and β-cleavage of APP because the relative rates of these cleavages are known to be affected by interactions between APP and a number of proteins, both at the cell surface and during recycling of APP [19], [20]. Altering the balance of these two cleavages to favor α-cleavage is of potential therapeutic benefit for Alzheimer's disease since it would reduce Aβ production and enhance sAPPα production, without inhibition of the beta and gamma secretases. A precedent exists for this effect in that an increa ...

[9] = 0.64 µM eAPP230–624, RERMS 0–270 µM

## O=S(=O)(O)c1cccc2cccc(Nc3ccccc3)c12 [1,8-ANS, 1-anilinonaphthalene-8-sulfonic acid]
eAPP230–624 [1]; 1,8-ANS below 50 µM (1:14 protein to 1,8-ANS molar ratio)
  fluorescence intensity drop: more than 50%
eAPP230–624 [1]; 1,8-ANS greater than 150 µM
  quenching of fluorescence at high concentration: quench nearly all the fluorescence
eAPP230–624 [1]; 1:20 protein to 1,8-ANS molar ratio, excitation wavelengths greater than 285 nm
  quenching of intrinsic fluorescence (FRET): efficiently quenched the intrinsic fluorescence
eAPP230–624 [1]; 345 nm, Shimadzu RF-530PC, 0.64 µM eAPP230–624, 24°C
  quenching constant (Ksv): 9.3 ± 0.1 mM⁻¹
eAPP230–624 [1]; 375 nm, Shimadzu RF-530PC, 0.64 µM eAPP230–624, 24°C
  quenching constant (Ksv): 10.9 ± 0.2 mM⁻¹
eAPP230–624 [1]; 375 nm, Spectramax XPS plate reader
  quenching constant (Ksv): 9.6 ± 0.3 mM⁻¹
Aβ oligomers
  binding to Aβ oligomers and Aβ aggregation: bind to Aβ oligomers and prevent Aβ aggregation
eAPP230–624 [2]; one-to-ten molar ratio protein to 1,8-ANS, 3 µM eAPP230–624
  effect on absorption of eAPP230–624: significant effect on the absorption

## CCN(CC)C(=S)SC(=S)N(CC)CC [Sulfiram]
eAPP230–624 [1]; 0.64 µM eAPP230–624, disulfiram 0–130 µM, sulfiram 0–320 µM, Shimadzu RF-530PC
  quenching of intrinsic fluorescence (in words): significantly quenched the intrinsic fluorescence
eAPP230–624 [1]; intrinsic fluorescence, confirmed with SAXS
  effect on dimerization of the ectodomain fragment (in words): inhibit dimerization of the ectodomain fragment
MBP-eAPP230–624
  effect on monomer-dimer equilibrium / dimerization of MBP-eAPP230–624 (in words): significantly affected the monomer-dimer equilibrium of MBP-eAPP230–624 in favor of the monomer; also recorded: shift the monomer-dimer equilibrium in favor of the monomer
[3]
  sAPPα production / α-cleavage of APP (in words): significantly enhance the production of sAPPα; also recorded: enhance α-cleavage significantly
7W-CHO cells
  sAPPα production / α-cleavage of APP (in words): increase sAPPα production
7W-CHO cells; listed as sulfiram
  sAPPα production / α-cleavage of APP (in words): significantly enhance the production of sAPPα; also recorded: enhance α-cleavage significantly
7W-CHO cells; sulfiram vs disulfiram, cell line not stated at place
  relative ability to enhance sAPPα production in cells (in words): reduced ability to enhance sAPPα production in cells
eAPP230–624 [2]; 1:6 molar ratio, 8.3 µM eAPP230–624, 50 µM compound, PBS plus 2% DMSO
  change in extinction coefficient: significant drop in the extinction coefficient

## Aβ1-28 (peptide)
[4]
  MWcalc/MWseq (apparent mass of the sample over the sequence mass of the eAPP fragment): 1.5
[5]
  MWcalc/MWseq (apparent mass of the sample over the sequence mass of the eAPP fragment): 0.9
[6]
  MWcalc/MWseq (apparent mass of the sample over the sequence mass of the eAPP fragment): 1.2

## Aβ1-28: Aβ fragment
eAPP230–624 [1]; legend of titration of 0.64 µM eAPP230–624 with 0–60 µM fragment
  inhibition of eAPP dimerization (in words): inhibit eAPP dimerization
eAPP230–624 [1]; titration of 0.64 µM eAPP230–624, 345 nm
  pattern of changes in the intrinsic fluorescence (in words): acted like Aβ1-40 dimers in terms of the changes in the intrinsic fluorescence
eAPP230–624 [7]
  MWcalc/MWseq: 0.9
  Dmax: 170 Å
  Rg: 46 Å
[8]
  elution later than the 7-kDa peak: 0.5 mls

## RERMS [The RERMS peptide itself (APP 328–332)]
eAPP230–624 [1]; [9]
  red-shift in the centroid wavelength: 1 nm
  red-shift in the peak position: approximately 2 nm
eAPP230–624 [1]; 0.64 µM eAPP230–624, RERMS 0–270 µM (1:0–1:420)
  effect on intensity of intrinsic fluorescence (in words): quenches the intensity of the intrinsic fluorescence
Neuronal cells
  fold reduced potency vs APP319–335: 10 -fold
eAPP230–624 [7]; SAXS of complex
  SAXS form of eAPP230–624 complex (in words): dimer with a significantly smaller maximum dimension and radius of gyration than the native dimer
eAPP230–624 [7]
  MWcalc/MWseq: 1.8
  Dmax: 130 Å
  Rg: 39 Å

## sAPPα: product of α-cleavage of APP; contains almost the entire ectodomain
APP
  inhibition of APP dimerization and cell survival (in words): inhibit APP dimerization and increase cell survival
